From patent US10941157B2, “Pesticidal compositions and uses thereof” (Gilead Apollo, LLC, priority 2015, dated 2021)
Values after ≈ are worked out from the molar mass of the structure shown.

Legend:
Assay type in all cases: cell-based
Diplodia maydis (Dm) = assay: In vitro pathogen growth inhibition assay, Dm; conditions: Stenocarpella maydis, 48 h, ≥90% inhibition; 48 hours vs 2% DMSO control; read-out: Compound Concentration (ppm) sufficient for ≥90% inhibition of growth, Dm
Method in brief: (§1)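 Value reported is the compound concentration reaching ≥90% growth inhibition, from OD readings at 24 and 48 h after blank subtraction, confirmed visually. Inoculum was spores diluted in 17% V8 medium, except Rs, using 1.5 mm mycelial plugs in ¼ PDB; actual compound concentration corrected via OD600.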

[1] = test system: Collectotrichum graminicola (Cg); assay: In vitro pathogen growth inhibition assay, Cg; conditions: 48 h, ≥90% inhibition; 48 hours vs 2% DMSO control; read-out: Compound Concentration (ppm) sufficient for ≥90% inhibition of growth, Cg
Method in brief: as §1

[2] = test system: Fusarium virguliforme (Fv); assay: In vitro pathogen growth inhibition assay, Fv; conditions: ≥90% inhibition, 48 hours vs 2% DMSO control, read-out: Compound Concentration (ppm) sufficient for ≥90% inhibition of growth, Fv
Method in brief: as §1

[3] = test system: Phytophthora capsici (Pc); assay: In vitro pathogen growth inhibition assay, Pc; conditions: 48 h, ≥90% inhibition, 48 hours vs 2% DMSO control, read-out: Compound Concentration (ppm) sufficient for ≥90% inhibition of growth, Pc
Method in brief: as §1

Septoria tritici (St) = assay: In vitro pathogen growth inhibition assay, St; conditions: Zymoseptoria tritici, 48 h, ≥90% inhibition; 48 hours vs 2% DMSO control; read-out: Compound Concentration (ppm) sufficient for ≥90% inhibition of growth, St
Method in brief: as §1

Botrtyis cinerea (Bc) = assay: In vitro pathogen growth inhibition assay, Bc; conditions: 48 h, ≥90% inhibition; 48 hours vs 2% DMSO control; read-out: Compound Concentration (ppm) sufficient for ≥90% inhibition of growth, Bc
Method in brief: as §1

[4] = test system: Fusarium moniliforme (Fm); assay: In vitro pathogen growth inhibition assay, Fm; conditions: Fusarium verticillioides; ≥90% inhibition; 48 hours vs 2% DMSO control; read-out: Compound Concentration (ppm) sufficient for ≥90% inhibition of growth, Fm
Method in brief: as §1

Rhizoctonia solani (Rs) = assay: In vitro pathogen growth inhibition assay, Rs (mycelial plugs); conditions: Rhizoctonia solani, 48 h, ≥90% inhibition; mycelial plugs; 48 hours vs 2% DMSO control; read-out: Compound Concentration (ppm) sufficient for ≥90% inhibition of growth, Rs
Method in brief: as §1

COCCOc1ccc(F)cc1[C@H](Cn1c(=O)n(C(C)(C)C(=O)NC(C)C)c(=O)c2c(C)c(-n3nccn3)sc21)OC(C)C [Compound I-068]
IC90 (Diplodia maydis (Dm)): ≥ 0.08 mg/L | IC90 [1]: 0.4 mg/L (≈ 0.634 µM) | IC90 [2]: 0.4 mg/L (≈ 0.634 µM) | IC90 [3]: > 50 mg/L | IC90 (Septoria tritici (St)): ≥ 50 mg/L | IC90 (Botrtyis cinerea (Bc)): 0.4 mg/L (≈ 0.634 µM) | IC90 [4]: 0.08 mg/L (≈ 0.127 µM) | IC90 (Rhizoctonia solani (Rs)): 0.4 mg/L (≈ 0.634 µM)

Cc1c(-n2nccn2)sc2c1c(=O)n(C(C)(C)C(=O)NC(C)C)c(=O)n2C[C@H](OC(C)C)c1cc(F)ccc1OCC1COC1 [Compound I-069]
IC90 (Diplodia maydis (Dm)): 0.4 mg/L (≈ 0.622 µM) | IC90 [1]: 0.4 mg/L (≈ 0.622 µM) | IC90 [2]: 0.4 mg/L (≈ 0.622 µM) | IC90 [3]: > 50 mg/L | IC90 (Septoria tritici (St)): ≥ 50 mg/L | IC90 (Botrtyis cinerea (Bc)): 0.4 mg/L (≈ 0.622 µM) | IC90 [4]: 0.08 mg/L (≈ 0.124 µM) | IC90 (Rhizoctonia solani (Rs)): ≥ 0.4 mg/L

Cc1c(-n2nccn2)sc2c1c(=O)n(C(C)(C)C(=O)NC(C)C)c(=O)n2C[C@H](OC(C)C)c1cc(F)ccc1OCC#N [Compound I-070]
IC90 (Diplodia maydis (Dm)): 0.4 mg/L (≈ 0.654 µM) | IC90 [1]: 2 mg/L (≈ 3.27 µM) | IC90 [2]: 0.08 mg/L (≈ 0.131 µM) | IC90 [3]: > 50 mg/L | IC90 (Septoria tritici (St)): ≥ 10 mg/L | IC90 (Botrtyis cinerea (Bc)): 0.4 mg/L (≈ 0.654 µM) | IC90 [4]: 0.08 mg/L (≈ 0.131 µM) | IC90 (Rhizoctonia solani (Rs)): 2 mg/L (≈ 3.27 µM)

Cc1c(-n2nccn2)sc2c1c(=O)n(C(C)(C)C(=O)NC(C)C)c(=O)n2C[C@H](OC(C)C)c1cc(F)ccc1OCCO [Compound I-071]
IC90 (Diplodia maydis (Dm)): 0.4 mg/L (≈ 0.649 µM) | IC90 [1]: 0.4 mg/L (≈ 0.649 µM) | IC90 [2]: 0.4 mg/L (≈ 0.649 µM) | IC90 [3]: ≥ 50 mg/L | IC90 (Septoria tritici (St)): ≥ 50 mg/L | IC90 (Botrtyis cinerea (Bc)): 0.4 mg/L (≈ 0.649 µM) | IC90 [4]: 0.08 mg/L (≈ 0.13 µM) | IC90 (Rhizoctonia solani (Rs)): ≥ 0.08 mg/L

COc1ccc(F)cc1[C@H](Cn1c(=O)n(C(C)(C)C(=O)NC(C)C)c(=O)c2c(C)c(-n3nccn3)sc21)OCC(C)(C)O [Compound I-072]
IC90 (Diplodia maydis (Dm)): 0.4 mg/L (≈ 0.649 µM) | IC90 [1]: ≥ 0.08 mg/L | IC90 [2]: 0.4 mg/L (≈ 0.649 µM) | IC90 [3]: 10 mg/L (≈ 16.2 µM) | IC90 (Septoria tritici (St)): ≥ 2 mg/L | IC90 (Botrtyis cinerea (Bc)): 2 mg/L (≈ 3.24 µM) | IC90 [4]: 0.08 mg/L (≈ 0.13 µM) | IC90 (Rhizoctonia solani (Rs)): ≥ 0.4 mg/L

COc1ccc(F)cc1[C@H](Cn1c(=O)n(C(C)(C)C(=O)N2CCCC2)c(=O)c2c(C)c(-n3nccn3)sc21)OCC(C)(C)O [Compound I-073]
IC90 (Diplodia maydis (Dm)): 2 mg/L (≈ 3.18 µM) | IC90 [1]: 0.4 mg/L (≈ 0.636 µM) | IC90 [2]: 0.4 mg/L (≈ 0.636 µM) | IC90 [3]: > 50 mg/L | IC90 (Septoria tritici (St)): ≥ 10 mg/L | IC90 (Botrtyis cinerea (Bc)): 2 mg/L (≈ 3.18 µM) | IC90 [4]: 0.08 mg/L (≈ 0.127 µM) | IC90 (Rhizoctonia solani (Rs)): ≥ 0.4 mg/L

COc1ccc(F)cc1[C@H](Cn1c(=O)n(C(C)(C)C(=O)N2CC=CC2)c(=O)c2c(C)c(-n3nccn3)sc21)OC1CCOCC1 [Compound I-075]
IC90 (Diplodia maydis (Dm)): 0.4 mg/L (≈ 0.626 µM) | IC90 [1]: 0.4 mg/L (≈ 0.626 µM) | IC90 [2]: 0.4 mg/L (≈ 0.626 µM) | IC90 [3]: > 50 mg/L | IC90 (Septoria tritici (St)): > 50 mg/L | IC90 (Botrtyis cinerea (Bc)): 2 mg/L (≈ 3.13 µM) | IC90 [4]: 0.08 mg/L (≈ 0.125 µM) | IC90 (Rhizoctonia solani (Rs)): 0.08 mg/L (≈ 0.125 µM)

COCCOc1ccc(F)cc1[C@H](Cn1c(=O)n(C(C)(C)C(=O)NC(C)C)c(=O)c2c(C)c(-n3nccn3)sc21)OC1CCOCC1 [Compound I-076]
IC90 (Diplodia maydis (Dm)): 0.4 mg/L (≈ 0.595 µM) | IC90 [1]: 0.4 mg/L (≈ 0.595 µM) | IC90 [2]: 0.4 mg/L (≈ 0.595 µM) | IC90 [3]: ≥ 50 mg/L | IC90 (Septoria tritici (St)): ≥ 10 mg/L | IC90 (Botrtyis cinerea (Bc)): 2 mg/L (≈ 2.97 µM) | IC90 [4]: 0.08 mg/L (≈ 0.119 µM) | IC90 (Rhizoctonia solani (Rs)): 0.08 mg/L (≈ 0.119 µM)

C=CCO[C@@H](Cn1c(=O)n(C(C)(C)C(=O)NC(C)C)c(=O)c2c(C)c(-n3nccn3)sc21)c1cc(F)ccc1OC [Compound I-077]
IC90 (Diplodia maydis (Dm)): 2 mg/L (≈ 3.42 µM) | IC90 [1]: 2 mg/L (≈ 3.42 µM) | IC90 [2]: 0.4 mg/L (≈ 0.684 µM) | IC90 [3]: > 50 mg/L | IC90 (Septoria tritici (St)): > 50 mg/L | IC90 (Botrtyis cinerea (Bc)): 2 mg/L (≈ 3.42 µM) | IC90 [4]: 0.08 mg/L (≈ 0.137 µM) | IC90 (Rhizoctonia solani (Rs)): 0.4 mg/L (≈ 0.684 µM)

COc1ccc(F)cc1[C@H](Cn1c(=O)n(C(C)(C)C(=O)NC2CC2)c(=O)c2c(C)c(-n3nccn3)sc21)OC(C)C [Compound I-078]
IC90 (Diplodia maydis (Dm)): 2 mg/L (≈ 3.42 µM) | IC90 [1]: 2 mg/L (≈ 3.42 µM) | IC90 [2]: 0.4 mg/L (≈ 0.684 µM) | IC90 [3]: > 50 mg/L | IC90 (Septoria tritici (St)): > 50 mg/L | IC90 (Botrtyis cinerea (Bc)): 2 mg/L (≈ 3.42 µM) | IC90 [4]: 0.08 mg/L (≈ 0.137 µM) | IC90 (Rhizoctonia solani (Rs)): 0.4 mg/L (≈ 0.684 µM)

C=CCNC(=O)C(C)(C)n1c(=O)c2c(C)c(-n3nccn3)sc2n(C[C@H](OC2CCOCC2)c2cc(F)ccc2OC)c1=O [Compound I-079]
IC90 (Diplodia maydis (Dm)): 2 mg/L (≈ 3.19 µM) | IC90 [1]: 2 mg/L (≈ 3.19 µM) | IC90 [2]: 0.4 mg/L (≈ 0.638 µM) | IC90 [3]: > 50 mg/L | IC90 (Septoria tritici (St)): > 50 mg/L | IC90 (Botrtyis cinerea (Bc)): 2 mg/L (≈ 3.19 µM) | IC90 [4]: 0.08 mg/L (≈ 0.128 µM) | IC90 (Rhizoctonia solani (Rs)): 0.4 mg/L (≈ 0.638 µM)

C=CCN(C)C(=O)C(C)(C)n1c(=O)c2c(C)c(-n3nccn3)sc2n(C[C@H](OC2CCOCC2)c2cc(F)ccc2OC)c1=O [Compound I-080]
IC90 (Diplodia maydis (Dm)): 0.4 mg/L (≈ 0.624 µM) | IC90 [1]: 0.08 mg/L (≈ 0.125 µM) | IC90 [2]: 2 mg/L (≈ 3.12 µM) | IC90 [3]: > 50 mg/L | IC90 (Septoria tritici (St)): > 50 mg/L | IC90 (Botrtyis cinerea (Bc)): 0.4 mg/L (≈ 0.624 µM) | IC90 [4]: 0.08 mg/L (≈ 0.125 µM) | IC90 (Rhizoctonia solani (Rs)): 0.08 mg/L (≈ 0.125 µM)

COc1ccc(F)cc1[C@H](Cn1c(=O)n(C(C)(C)C(=O)N2CC=CC2)c(=O)c2c(C)c(-n3nccn3)sc21)OC[C@@H](C)O [Compound I-081]
IC90 (Diplodia maydis (Dm)): 2 mg/L (≈ 3.26 µM) | IC90 [1]: 0.4 mg/L (≈ 0.653 µM) | IC90 [2]: 0.4 mg/L (≈ 0.653 µM) | IC90 [3]: ≥ 50 mg/L | IC90 (Septoria tritici (St)): > 50 mg/L | IC90 (Botrtyis cinerea (Bc)): 2 mg/L (≈ 3.26 µM) | IC90 [4]: 0.08 mg/L (≈ 0.131 µM) | IC90 (Rhizoctonia solani (Rs)): 0.4 mg/L (≈ 0.653 µM)

COCCCO[C@@H](Cn1c(=O)n(C(C)(C)C(=O)N2CCCC2)c(=O)c2c(C)c(-n3nccn3)sc21)c1cc(F)ccc1OC [Compound I-083]
IC90 (Diplodia maydis (Dm)): 2 mg/L (≈ 3.18 µM) | IC90 [1]: 2 mg/L (≈ 3.18 µM) | IC90 [2]: 0.4 mg/L (≈ 0.636 µM) | IC90 [3]: > 50 mg/L | IC90 (Septoria tritici (St)): ≥ 50 mg/L | IC90 (Botrtyis cinerea (Bc)): 2 mg/L (≈ 3.18 µM) | IC90 [4]: 0.08 mg/L (≈ 0.127 µM) | IC90 (Rhizoctonia solani (Rs)): 0.4 mg/L (≈ 0.636 µM)

CCOC(=O)C(C)(C)n1c(=O)c2c(C)c(-n3nccn3)sc2n(C[C@H](OCCO)c2cc(F)ccc2OC)c1=O [Compound I-085]
IC90 (Diplodia maydis (Dm)): 0.4 mg/L (≈ 0.695 µM) | IC90 [1]: 0.4 mg/L (≈ 0.695 µM) | IC90 [2]: 0.4 mg/L (≈ 0.695 µM) | IC90 [3]: > 50 mg/L | IC90 (Septoria tritici (St)): ≥ 10 mg/L | IC90 (Botrtyis cinerea (Bc)): > 0.08 mg/L | IC90 [4]: 0.08 mg/L (≈ 0.139 µM) | IC90 (Rhizoctonia solani (Rs)): 0.08 mg/L (≈ 0.139 µM)

COCCO[C@@H](Cn1c(=O)n(CC(=O)NC(C)C)c(=O)c2c(C)c(-n3nccn3)sc21)c1cc(F)ccc1OC [Compound I-086]
IC90 (Diplodia maydis (Dm)): > 50 mg/L | IC90 [1]: > 50 mg/L | IC90 [2]: ≥ 2 mg/L | IC90 [3]: > 50 mg/L | IC90 (Septoria tritici (St)): > 50 mg/L | IC90 (Botrtyis cinerea (Bc)): > 50 mg/L | IC90 [4]: 0.08 mg/L (≈ 0.139 µM) | IC90 (Rhizoctonia solani (Rs)): 10 mg/L (≈ 17.4 µM)
